pIC50: −log10 of the molar value. Read-outs that look alike come from different tables or passages of the source.

The test system of data set [1] is G3MB and SHHMB tumor cells. The data set can be described thus: Single agent drug screen, statements over the panel of MB models. In kind it is cell-based, human. The settings on record: most potent compounds over the MB models.
For data set [2], the system named is HD-MB03 cells. As to the kind of experiment: cells. In kind it is cell-based, human.
In data set [3] the test system is HD-MB03 cells. The settings on record: HD-MB03, 1h exposure.
Data set [4] concerns HD-MB03 cells.
Data set [5] concerns HD-MB03 intracranial xenograft. The data set can be described thus: Pre-clinical trial, survival of intracranial tumor bearing mice. Format: in vivo, mouse.
Data set [6] deals with MB002 intracranial xenograft. The data set is described as above. The settings on record: 10 mg/kg. Format: in vivo, mouse.
Data set [7] can be described thus: Toxicity measurement in tumor bearing mice. In kind it is in vivo, mouse.
The subject of data set [8] is SJMBSHH-13-5634 intracranial PDX.
The conditions of data set [9]: adult patients, once a day dosing; cited from earlier work.
In data set [10] the test system is MYC, CYCLIN E, p27KIP1 expression in HD-MB03 cells. The data set can be described thus: Immunoblotting. Format: cell-based, human. The settings on record: HD-MB03, 72h, 5μM ribociclib, 0.3μM JQ1, 0.5μM paxalisib.

As to `Cc1csc(-c2nnc(Nc3ccc(Oc4ncccc4-c4ccnc(N)n4)cc3)c3ccccc23)c1` [AMG-900], the “IC50 (in words)” value in data set [1] is reported as “picomolar to low nanomolar range”.
On the same count and under the same terms, next, `CON(C)C(=O)N1N=C(c2cc(F)ccc2F)S[C@@]1(CCCN)c1ccccc1` [ARRY-520 /filanesib, filanesib]: “picomolar to low nanomolar range”.
In turn, `Cc1sc2c(c1C)C(c1ccc(Cl)cc1)=N[C@@H](CC(=O)OC(C)(C)C)c1nnc(C)n1-2` [JQ1] returned an IC20 in the data set on HD-MB03 cells [2] (HD-MB03, anchor concentration) of 0.132 µM. The compound further gave a pIC50 with HD-MB03 cells [3] of less than 5.70.
Consider `Cc1nc(Nc2n[nH]c3c2CN(C(=O)N[C@H](CN(C)C)c2ccccc2)C3(C)C)c2sccc2n1` [PF-03758309], for which the “IC50 (in words)” value in data set [1] was “picomolar to low nanomolar range”.
On to `CCc1c2c(nc3ccc(O)cc13)-c1cc3c(c(=O)n1C2)COC(=O)[C@]3(O)CC` [SN-38], for which, in data set [1], the “IC50 (in words)” value is “picomolar to low nanomolar range”.
For the compound `CCN1CCN(Cc2ccc(Nc3ncc(F)c(-c4cc(F)c5nc(C)n(C(C)C)c5c4)n3)nc2)CC1` [abemaciclib], in the data set on HD-MB03 cells [4], the “EC50 fold improvement (IC50 fold change of drug partner)” value came out at 12.8 fold.
`CC(=O)c1c(C)c2cnc(Nc3ccc(N4CCNCC4)cn3)nc2n(C2CCCC2)c1=O` [palbociclib]: in the data set on HD-MB03 cells [4], the “EC50 fold improvement (IC50 fold change of drug partner)” value was 30.5 fold.
`CC1(C)OCCn2c1nc1c(N3CCOCC3)nc(-c3cnc(N)nc3)nc12` [paxalisib]: the Median survival turned out to be 27 days in data set [5] (10 mg/kg), 33.5 days in data set [6] and 46 days in data set [8] (10 mg/kg). The “body weight and body condition” value in data set [7] (MB bearing mice, paxalisib 10mg/kg alone or with ribociclib 100mg/kg) was “severe weight loss and had poor body condition”. In data set [9], the maximum tolerated dose is 45 mg/day.
The compound `CN(C)C(=O)c1cc2cnc(Nc3ccc(N4CCNCC4)cn3)nc2n1C1CCCC1` [ribociclib] registered an IC20 in the data set with HD-MB03 cells [2] (Homo sapiens, HD-MB03) of 5 µM. In data set [10], the “MYC, CYCLIN E, p27KIP1 protein expression” value was “increased expression of MYC and CYCLIN E proteins”. Further, the values for the Median survival in data set [5] (100 mg/kg) and in data set [8] (100 mg/kg) were 25 days and 71.5 days, respectively. For the same compound, in data set [7] (MB002-bearing mice, ribociclib 100mg/kg, JQ1 50mg/kg daily), the “complete blood counts (in words)” value is recorded as “mild leukopenia”. Moreover, in the data set on HD-MB03 cells [4] (Fig. 2D, 0.132μM JQ1 anchor, HD-MB03), the “EC50 fold improvement (IC50 fold change of drug partner)” value was 7.8 fold.

The values above are taken from publication PMC9808370 (Molecular cancer therapeutics, 2023).
